Experimental data reported in patent US9816227B2, “Textile products with herbal composition to render the fabrics insects repellent” (priority 2013, dated 2017).

Experiments:
[1] = test system: insects (larvae, pupae, adults); test: Exposure of insect larvae: inhibition of development to pupae and adults; type: in vivo
From the text: The possible effect of azadirachtin and other bioflavonoids including azadiradione, fraxinellone, nimbin, salannin, salannol, vepinin and vilasinin, the active components of the Neem seed oil extract, are inhibiting molting in larvae to pupae and adults of the most of the insects. Apart from delayed lethal action, effects on the pupation, adult emergence, and size of pupae or adults have been also observed. […] The compounds are characterized by their inhibition or prevention of formation of adult morphology. The effects on pupae (based on proportion of undeveloped individuals) and adults (based on incomplete development, attachment to puparia, or inability to fly) are dose-dependent.
No adults of insects are obtained at doses of 1.10, 10 and 100 μg/ml. These concentrations cause about 100% mortality of larvae or developed pupae. […] The treatments with 0.00001 and 0.001 μg/ml would result in an insignificant increase (0.8-1.6%) in the female wing length/width.

[2] = test system: desert locust (Schistocerca gregaria); settings: in vivo; cited from earlier work
[3] = exposed to light and water; cited from earlier work

For `C/C=C(\C)C(=O)O[C@H]1C[C@@H](OC(C)=O)[C@@]2(C(=O)OC)CO[C@H]3[C@@H](O)[C@@](C)([C@]45O[C@@]4(C)[C@H]4C[C@@H]5O[C@@H]5OC=C[C@@]54O)[C@H]4[C@]1(CO[C@]4(O)C(=O)OC)[C@@H]32` [azadirachtin, dimethyl (2aR,3S,4S,R,S,7aS,8S,10R,10aS,10bR)-10-(acetyloxy)-3,5-dihydroxy-4-[(1S,2S,6S,8S,9R,11S)-2-hydroxy-11-methyl-5,7,10-trioxatetracyclo[6.3.1.02,6.09,11]dodec-3-en-9-yl]-4-methyl-8-{[(2E)-2-methylbut-2-enoyl]oxy}octahydro-1H-furo[3′,4′:4,4a]naphtho[1,8-bc]furan-5,10a(8H)-dicarboxylate], the “increase in the female wing length/width” value ([1]; 0.00001 and 0.001 μg/ml, insignificant) was 0.8-1.6%, the “effect on wing dimensions of females” value ([1]; 0.001, 0.01 and 0.1 μg/ml) was “do not significantly affect” and the “pupal weights and dimensions, adult weights, wing dimensions, or interocular distances” value ([1]; treatment of larvae with 0.00001 to 0.1 μg/ml) was “significant reductions”. The feeding inhibitor activity [2] was “active” and the degradation time [3] was no more than 100 h.
